Series [1] can be described thus: Isothermal titration calorimetry (ITC) of complexation with HPGCD. The format is physicochemical. Here is the method:
(§1) Complexes between neramexane mesylate and either hydroxypropyl-beta-cyclodextrin (HPBCD; grade: Kleptose™ HPB) or hydroxypropyl-gamma-cyclodextrin (HPGCD; grade: Cavasol™ W8 HP Pharma) are formed and investigated by isothermal titration calorimetry (ITC). The experiments are performed on a Microcal MCS-ITC instrument. The procedure consists of iteratively adding small portions of a test solution (here: a neramexane mesylate solution) through a motorised microlitre syringe to a receptor solution (here: a cyclodextrin solution) located in the calorimeter. Upon complexation, an exothermic or endothermic signal is produced which represents the sum of all thermal events including complexation itself, but also heats of dilution or (de)protonation. The titration curves are evaluated with the Microcal Origin software V2.9 with its original data evaluation module for titration calorimetric evaluations.
(§2) The experiments are carried out using aqueous phosphate buffer of pH 6 as a solvent. Solutions of neramexane mesylate, HPBCD, and HPGCD of various concentrations are prepared, and a number of titrations are conducted using different maximal molar ratios of neramexane to cyclodextrin (after complete addition of the drug substance), ranging from 1.25 to 5. Titrations with solvent solutions alone and in combination with cyclodextrin solution are performed to obtain curves indicating the heats of dilution, which may be used as baseline data for the correction of the complexation curves.

Series [2] in a line: Isothermal titration calorimetry (ITC) of complexation with HPBCD. In kind it is physicochemical. Here is the method:
as §1, §2

Where [3] appears, read: final molar ratio 1.8, aqueous phosphate buffer pH 6.
Where [4] appears, read: final molar ratio 1.25, aqueous phosphate buffer pH 6.
[5] abbreviates: final molar ratio of neramexane to cyclodextrin 5, aqueous phosphate buffer pH 6.

For `CC1(C)CC(C)(C)CC(C)(N)C1` [neramexane, 1-amino-1,3,3,5,5-pentamethylcyclohexane], the “thermal nature of complexation” value in series [1] (aqueous phosphate buffer pH 6) is “endothermic”; in series [2] (aqueous phosphate buffer pH 6), “exothermic”. Moreover, the equilibrium constant in series [1] (setting [3]) was 112 M⁻¹; in series [2] (setting [4]) it was 413 M⁻¹; in series [2] (setting [5]), 788 M⁻¹. In series [1] (setting [3]), the stoichiometry of binding is reported as 0.93. In addition, the figures for the “stoichiometry of binding (of neramexane per cyclodextrin molecule)” value in series [2] (setting [4]) and in series [2] (setting [5]) were 0.4 and 0.84, respectively.
